# Measured values from PMC9396645 (Frontiers in Chemistry, 2022).
# Test system: C4-2 tumor bearing BALB/c nu/nu mice
# Assay: Biodistribution (organ distribution) in C4-2 tumor-bearing mice
# Format: in vivo, mouse
# Source text: Athymic male nude mice (BALB/c nu/nu) were purchased from Charles River at 4‒5 weeks of age (19–23 g). The mice were kept under pathogen-free conditions for 1 week prior to the study. The mice had free access to water and food and were housed with a 12-h/12-h light/dark cycle. The xenografts required for positron emission tomography (PET) imaging and biodistribution studies were obtained by inoculation of 5 × 10^7 C4-2 cells in 50% Matrigel in Opti-MEM I (1 ×) medium. For this purpose, the mice were anesthetized with 2% sevoflurane, and inoculation was performed subcutaneously on the right trunk. When the size of the tumor was approximately 1 cm^3, the studies were performed.
# Based on the results of the PET imaging, ^68Ga-CA028 and ^68Ga-CA030, the most promising compounds, were chosen for biodistribution studies in C4-2 tumor-bearing mice. The labeled compound (0.05 nmol, 20 MBq) was administered to the mice via tail vein injection. Animals were sacrificed and organs were harvested at the following time points: 20 min, 1, 2, and 4 h p.i. The organs were dissected and weighed, the activity was measured with a γ-counter, and the % ID/g was calculated.
structure (smiles),measurement,setting,value
O=C([O-])CN1CCN(CC(=O)[O-])CCN(Cc2ccc(C(=O)NCC3CCC(C(=O)NC(Cc4ccc5ccccc5c4)C(=O)NCCCCC(NC(=O)NC(CCC(=O)O)C(=O)O)C(=O)O)CC3)cc2)CCN(CC(=O)[O-])CC1.[68Ga+3] (stereo not shown) [^68Ga-CA028],tumor uptake,"C4-2 tumor, 20 min after injection, 0.05 nmol, 20 MBq",12.53 ± 0.45 %ID/g
same,tumor uptake with blockade,"C4-2 tumor, 1 h p.i., co-injection of non-labeled PSMA-617 2 mg/kg",1.31 ± 0.34 %ID/g
same,kidney uptake,"kidneys, 1 h p.i., 0.05 nmol, 20 MBq",15.58 ± 2.79 %ID/g
same,kidney uptake with blockade,"kidneys, 1 h p.i., co-injection of non-labeled PSMA-617 2 mg/kg",2.37 ± 0.52 %ID/g
